“And” between values parts separate entries of the source, which are not always exact repeats. Identical values can stand only once. Like-named read-outs stand apart in the source and are kept apart here.
Legend:
[1] = target: T1, AChE from human erythrocytes (Homo sapiens, UniProt P22303); test: biochemical; details: for inhibition at 1 µM: read-out: (h)AChE % inhibition at 10^−6M
T1 construct: AChE from human erythrocytes; purchased Sigma Aldrich; host or cells: human erythrocytes (natural source)
Experimental: Acetylthiocholine iodide and 5,5-dithiobis-(2-nitrobenzoic) acid (DTNB) were purchased from Sigma Aldrich. AChE from human erythrocytes (buffered aqueous solution, ≥500 units/mg protein (BCA), Sigma Aldrich) was diluted in 20 mM HEPES buffer pH 8, 0.1% Triton X-100 such as to have enzyme solution with 0.25 unit/mL enzyme activity. In the procedure, 100 μL of 0.3 mM DTNB dissolved in phosphate buffer pH 7.4 was added into the 96-well plate followed by 50 μL of test compound solution and 50 μL of enzyme (0.05 U final). After 5 min of preincubation at 25°C, the reaction was then initiated by the injection of 50 μL of 10 mM acetylthiocholine iodide solution. […] Assays were performed with a blank containing all components except acetylthiocholine, in order to account for non-enzymatic reaction. The reaction slopes were compared and the percent inhibition due to the presence of test compounds was calculated by the following expression: 100 − (vi/v0 × 100) where vi is the rate calculated in the presence of inhibitor and v0 is the enzyme activity.

human 5-HT6 receptors = target: T2, human 5-HT6 receptors (Homo sapiens, UniProt P50406); test: [3H]-LSD competition binding on membranes of HEK-293 cells expressing human 5-HT6 receptors; details: for inhibition / inhibition at 0.0025 µM: 2.5 nM [3H]-LSD; for Ki: (h)5-HT6R Ki, n = 3, Ki ± SD
T2 construct: purchased Perkin Elmer RBHS6M; host or cells: HEK-293 cells, transient expression (membranes)
Experimental: Drugs were evaluated through their possibility to compete for the binding of [^3H]-LSD on membranes of HEK-293 cells transiently expressing the human 5-HT6 receptors (ref. RBHS6M, Perkin Elmer). […] At the end of the incubation, the homogenates were then filtered through Whatman GF/C filters and washed five times with ice-cold 25 mM Tris-HCl buffer. Non-specific binding was evaluated in the presence of 100 μM serotonin. Radioactivity associated to proteins was then quantified and expressed as the percentage of inhibition of the drugs under study.
(§1) For some of these compounds, affinity constants were calculated from five-point inhibition curves using the GraphPad Prism 6 software and expressed as Ki ± SD.

Human 5-HT4R = target: T3, Human 5-HT4R (Homo sapiens, UniProt Q13639); test: [3H]-GR113808 competition binding on 5-HT4(b) membrane preparations; details: for inhibition / inhibition at 0.0002 µM: 0.2 nM [3H]-GR113808; for Ki: (h)5-HT4R Ki, n = 3, Ki ± SD
T3 construct: purchased Eurofins HTS110M
Experimental: At the end of the incubation, homogenates were filtered through Whatman GF/C filters (Alpha Biotech) presoaked with 0.5% polyethylenimine using a Brandel cell harvester. Filters were subsequently washed three times with 1 mL of ice-cold 25 mM Tris buffer (pH 7.4, 4°C). Non-specific binding was evaluated in parallel in the presence of 30 μM serotonin.
as §1

[2] = read-out: (h)5-HT6R % inhibition at 10^−6M, 10^−6M
[3] = read-out: (h)5-HT6R % inhibition at 10^−8M, 10^−8M
[4] = read-out: (h)5-HT4R % inhibition at 10^−6M, 10^−6M
[5] = read-out: (h)5-HT4R % inhibition at 10^−8M, 10^−8M

T2 sequence (P50406 whole entry): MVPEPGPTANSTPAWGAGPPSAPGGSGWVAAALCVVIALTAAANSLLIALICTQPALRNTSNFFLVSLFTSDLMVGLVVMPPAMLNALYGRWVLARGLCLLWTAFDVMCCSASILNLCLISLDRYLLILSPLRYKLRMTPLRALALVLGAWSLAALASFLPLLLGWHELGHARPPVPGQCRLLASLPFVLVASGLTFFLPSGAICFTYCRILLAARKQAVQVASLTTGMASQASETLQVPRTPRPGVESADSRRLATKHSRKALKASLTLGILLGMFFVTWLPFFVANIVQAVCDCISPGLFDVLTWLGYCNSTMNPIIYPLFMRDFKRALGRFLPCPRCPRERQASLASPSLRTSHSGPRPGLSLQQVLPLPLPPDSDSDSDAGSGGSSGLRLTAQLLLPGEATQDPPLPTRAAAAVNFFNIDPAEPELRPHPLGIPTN
T1 sequence (P22303 other isoform, or with tags, fused parts or gaps): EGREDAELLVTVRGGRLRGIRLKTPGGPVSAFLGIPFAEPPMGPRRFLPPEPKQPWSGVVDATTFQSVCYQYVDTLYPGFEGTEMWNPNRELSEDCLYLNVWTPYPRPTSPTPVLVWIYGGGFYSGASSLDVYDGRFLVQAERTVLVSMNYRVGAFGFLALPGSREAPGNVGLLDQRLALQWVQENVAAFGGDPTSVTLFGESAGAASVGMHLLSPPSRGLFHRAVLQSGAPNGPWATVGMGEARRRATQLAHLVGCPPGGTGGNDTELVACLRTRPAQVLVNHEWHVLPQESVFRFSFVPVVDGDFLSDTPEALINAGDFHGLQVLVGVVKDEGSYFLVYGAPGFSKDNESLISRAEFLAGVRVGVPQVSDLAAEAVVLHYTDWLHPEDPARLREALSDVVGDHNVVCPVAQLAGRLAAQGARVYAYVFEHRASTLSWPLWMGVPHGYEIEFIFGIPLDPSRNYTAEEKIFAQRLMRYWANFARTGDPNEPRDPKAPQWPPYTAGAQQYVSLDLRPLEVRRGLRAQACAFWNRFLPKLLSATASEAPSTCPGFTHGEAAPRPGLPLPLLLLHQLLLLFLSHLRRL
T3 sequence (Q13639 whole entry): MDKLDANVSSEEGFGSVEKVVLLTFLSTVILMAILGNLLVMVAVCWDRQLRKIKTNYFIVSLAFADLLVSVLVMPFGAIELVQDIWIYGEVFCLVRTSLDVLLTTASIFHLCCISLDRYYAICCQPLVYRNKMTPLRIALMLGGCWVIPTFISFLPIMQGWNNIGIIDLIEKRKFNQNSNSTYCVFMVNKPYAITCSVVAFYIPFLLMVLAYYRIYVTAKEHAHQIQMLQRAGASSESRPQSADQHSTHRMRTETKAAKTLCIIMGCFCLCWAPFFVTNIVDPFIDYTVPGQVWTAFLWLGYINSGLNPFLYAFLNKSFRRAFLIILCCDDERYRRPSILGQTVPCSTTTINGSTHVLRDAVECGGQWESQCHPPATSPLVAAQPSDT

Compound	IC50 ([1]; n = 2, read-out: (h)AChE IC50)	inhibition at 1 µM [1]	inhibition (human 5-HT6 receptors; [2])	inhibition (human 5-HT6 receptors; [3])	inhibition (Human 5-HT4R; [4])	inhibition (Human 5-HT4R; [5])	inhibitory effect towards AChE (in words) [1]	affinity for 5-HT6R (in words) (human 5-HT6 receptors)	Ki (human 5-HT6 receptors)	inhibition at 0.0025 µM (human 5-HT6 receptors; [2])	Ki (Human 5-HT4R)	inhibition at 0.0002 µM (Human 5-HT4R; [5])	IC50 ([1]; (h)AChE IC50, n = 2)
COc1cc(N)c(Cl)cc1C(=O)CCC1CCN(Cc2ccc(O)cc2)CC1 [5p, 1-(4-Amino-5-chloro-2-methoxyphenyl)-3-(1-(4-hydroxybenzyl)piperidin-4-yl)propan-1-one]	6 ± 0.4 nM	98%	24%	0%	100%	23%	–	–	–	–	–	–	–
COc1cc(N)c(Cl)cc1C(=O)CCC1CCN(Cc2ccc(F)cc2)CC1 [5o, 1-(4-Amino-5-chloro-2-methoxyphenyl)-3-(1-(4-fluorobenzyl)piperidin-4-yl)propan-1-one]	78.4 ± 12.1 nM	92%	58%	13%	102%	19%	–	–	–	–	–	–	–
COc1cccc(CN2CCC(CCC(=O)c3cc(Cl)c(N)cc3OC)CC2)c1 [5l, 1-(4-Amino-5-chloro-2-methoxyphenyl)-3-(1-(3-methoxybenzyl)piperidin-4-yl)propan-1-one]	–	35%	78%	6%	94%	9%	devoid of inhibitory effect towards AChE	displayed affinity for 5-HT6R	265 ± 64 nM	–	–	–	–
COc1cc(N)c(Cl)cc1C(=O)CCC1CCN(Cc2cc(N)ccc2F)CC1 [5t, 1-(4-Amino-5-chloro-2-methoxyphenyl)-3-(1-(5-amino-2-fluorobenzyl)piperidin-4-yl)propan-1-one]	153 ± 19.9 nM	79%	65%	3%	98%	18%	–	–	–	–	–	–	–
COc1cc(N)c(Cl)cc1C(=O)CCC1CCN(Cc2ccccc2Cl)CC1 [5b, 1-(4-Amino-5-chloro-2-methoxyphenyl)-3-(1-(2-chlorobenzyl)piperidin-4-yl)propan-1-one]	156 ± 71 nM	91%	–	27%	94%	16%	–	–	110 ± 19 nM	–	–	–	–
COc1cc(N)c(Cl)cc1C(=O)CCC1CCN(Cc2ccccc2Br)CC1 [5c, 1-(4-Amino-5-chloro-2-methoxyphenyl)-3-(1-(2-bromobenzyl)piperidin-4-yl)propan-1-one]	317 ± 115 nM	80%	65%	34%	96%	17%	–	–	–	–	–	–	–
COc1cc(N)c(Cl)cc1C(=O)CCC1CCN(Cc2ccccc2OCc2ccccc2)CC1 [5g, 1-(4-Amino-5-chloro-2-methoxyphenyl)-3-(1-(2-benzyloxybenzyl)piperidin-4-yl)propan-1-one]	–	33%	18%	0%	70%	7%	–	–	–	–	–	–	–
COc1cc(N)c(Cl)cc1C(=O)CCC1CCN(Cc2cccc(F)c2)CC1 [5j, 1-(4-Amino-5-chloro-2-methoxyphenyl)-3-(1-(3-fluorobenzyl)piperidin-4-yl)propan-1-one]	91 ± 53.8 nM	97%	59%	9%	98%	12%	–	–	–	–	–	–	–
COc1cc(N)c(Cl)cc1C(=O)CCC1CCN(Cc2ccccc2O)CC1 [5h, 1-(4-Amino-5-chloro-2-methoxyphenyl)-3-(1-(2-hydroxybenzyl)piperidin-4-yl)propan-1-one]	57.4 ± 9.4 nM	94%	24%	0%	98%	10%	–	–	–	–	–	–	–
COc1cc(N)c(Cl)cc1C(=O)CCC1CCN(Cc2ccccc2I)CC1 [5e, 1-(4-Amino-5-chloro-2-methoxyphenyl)-3-(1-(2-iodobenzyl)piperidin-4-yl)propan-1-one]	–	37%	81%	25%	96%	1%	devoid of inhibitory effect towards AChE	displayed affinity for 5-HT6R	186 ± 71 nM	–	–	–	–
COc1cc(N)c(Cl)cc1C(=O)CCC1CCN(Cc2ccc(C)cc2)CC1 [5q, 1-(4-Amino-5-chloro-2-methoxyphenyl)-3-(1-(4-methylbenzyl)piperidin-4-yl)propan-1-one]	450 nM	87%	21%	21%	100%	24%	–	–	–	–	–	–	–
COc1cc(N)c(Cl)cc1C(=O)CCC1CCN(Cc2cccc([N+](=O)[O-])c2)CC1 [5n, 1-(4-Amino-5-chloro-2-methoxyphenyl)-3-(1-(3-nitrobenzyl)piperidin-4-yl)propan-1-one]	–	64%	51%	0%	90%	3%	–	–	–	–	–	–	–
COc1cc(N)c(Cl)cc1C(=O)CCC1CCN(Cc2cc(NC(C)=O)ccc2Br)CC1 [5r, N-(3-((4-(3-(4-Amino-5-chloro-2-methoxyphenyl)-3-oxopropyl)piperidin-1-yl)methyl)-4-bromophenyl) acetamide]	–	13%	35%	7%	96%	6%	–	–	–	–	–	–	–
COc1cc(N)c(Cl)cc1C(=O)CCC1CCN(Cc2cccc(Br)c2)CC1 [5i, 1-(4-Amino-5-chloro-2-methoxyphenyl)-3-(1-(3-bromobenzyl)piperidin-4-yl)propan-1-one]	–	44%	77%	7%	94%	5%	devoid of inhibitory effect towards AChE	displayed affinity for 5-HT6R	169 ± 44 nM	–	–	–	–
COc1cc(N)c(Cl)cc1C(=O)CCC1CCN(Cc2cccc(N)c2)CC1 [5m, 1-(4-Amino-5-chloro-2-methoxyphenyl)-3-(1-(3-aminobenzyl)piperidin-4-yl)propan-1-one]	41 ± 5 nM	93%	–	31%	100%	–	–	–	1150 ± 559 nM	> 70%	43 nM and 42.5 nM	≥ 25%	–
COc1cc(N)c(Cl)cc1C(=O)CCC1CCN(Cc2ccccc2F)CC1 [5d, 1-(4-Amino-5-chloro-2-methoxyphenyl)-3-(1-(2-fluorobenzyl)piperidin-4-yl)propan-1-one]	102 ± 65.4 nM	96%	68%	21%	94%	10%	–	–	–	–	–	–	–
COc1cc(N)c(Cl)cc1C(=O)CCC1CCN(Cc2cc([N+](=O)[O-])ccc2F)CC1 [5s, 1-(4-Amino-5-chloro-2-methoxyphenyl)-3-(1-(2-fluoro-5-nitrobenzyl)piperidin-4-yl)propan-1-one]	–	63%	18%	5%	62%	4%	–	–	–	–	–	–	–
COc1cc(N)c(Cl)cc1C(=O)CCC1CCN(Cc2ccccc2C)CC1 [5f, 1-(4-Amino-5-chloro-2-methoxyphenyl)-3-(1-(2-methylbenzyl)piperidin-4-yl)propan-1-one]	225 ± 57.3 nM	87%	–	24%	98%	9%	–	–	270 ± 14 nM	> 70%	–	–	–
COc1cc(N)c(Cl)cc1C(=O)CCC1CCN(Cc2ccccc2)CC1 [5a]	–	98%	29%	0%	102%	41%	–	devoid of such an activity	–	–	–	–	–
COc1cc(N)c(Cl)cc1C(=O)CCC1CCN(Cc2cccc(C)c2)CC1 [5k, 1-(4-Amino-5-chloro-2-methoxyphenyl)-3-(1-(3-methylbenzyl)piperidin-4-yl)propan-1-one]	–	89%	–	9%	98%	–	–	–	230 ± 49 nM	> 70%	168 ± 15 nM	≥ 25%	161 ± 43 nM
